Results from patent US10273313B2, “Multimeric mannosides, a process for preparing the same and their uses as a drug” (CENTRE NATIONAL DE LA RECHERCHE SCIENTIFIQUE, priority 2012, dated 2019).
≈ marks a conversion by molar mass, not a printed value. Read-outs that look alike come from different tables or passages of the source.

Key:
FimH = FimH (Escherichia coli, UniProt P08191); assay type: binding
Experimental: Journal of the American Society for Mass Spectrometry, 2009. […] Tested compounds were added to wells following with FimH treatment.
Plates were coated with 100 μl of 10 mg/ml solution of RNAse-B in 100 mM carbonate/bicarbonate buffer pH 9.6. […] 2 h. Then washed three times with 10 mM PBS containing 0.05% Tween-20. […] Wells were washed three times with 10 mM PBS+0.05% Tween-20. 100 μl of anti-body conjugated to horseradish peroxidase (1:5000) was added in buffer and incubated for 1 h at room temperature. Then washed three times with 10 mM PBS+0.05% Tween-20. Added 100 μl of TMB and incubated in dark for 2-5 min. The reaction was stopped with 100 μl/well 1N sulfuric acid. Plate absorbance was analyzed at 450 nm using microplate reader.

[1] = system: primary human peripheral venous blood monocyte-derived macrophages; test: Macrophage-mediated phagocytosis of aged PMN cells; assay type: cell-based; settings: 10 nM
From the text: To estimate the influence of mannose-based inhibitors on possible inhibition of phagocytosis we used primary human peripheral venous blood monocyte-derived macrophages and estimated their ability to phagocyte autologous and allogenic human blood-derived PMN cells, as described by us previous (Bilyy, R. O. et al. (2012) J Biol Chem 287, 496-503).
Primary human PMN and MoMa from healthy volunteers were used. Monocytes were isolated from peripheral blood by LymphoPrep® gradient according to manufacture's recommendations for isolation of PBMC fraction. Plastic-attached cells of PBMC fraction were then cultured for 7 days in the presence of GM-CSF (100 U/ml) and autologous serum (added at days 1, 3 and 5) to generate MoMa. After 7 days of differentiation, the MoMa population was tested. They typically contain >95% CD11b+ cells, >90% CD14+ cells and >85% CD89+ cells. Phagocytosis was assessed by pre-incubation of PMN (freshly isolated or aged for 24 h) with mannose-based inhibitor for 30 min at 37° C. at Ringer buffer. Cells were thoroughly washed three times with Ringer solution and incubated with human MoMa for 2 hours. Uningested PMN were analyzed by flow cytometry (for this reason cells were pre-stained with CFSE (Rodel, F. et al. (2005) Strahlentherapie and Onkologie: Organ der Deutschen Rontgengesellschaft . . . [et al] 181, 456-462)) or in the hemocytometric chamber using Zeiss AxioImager A1 microscope. The percentage of prey cells that had been bound to or taken up by MoMa (% of phagocytosis) was calculated.

bladder cell line 5637 = test: Anti-adhesives for bacterial bladder cell binding; assay type: cell-based; settings: ten-fold dilution series
Experimental: The anti-adhesive capacities of the HM-derivatized cyclodextrins 1-4 were tested in vitro on the bladder cell line 5637, in a procedure analogous as previously described (Wellens, A. et al., PLoS ONE 3: e2040 (2008)). The CD conjugates 1-4 were diluted in a ten-fold series. The minimum inhibitory concentrations (MIC) indicate the concentrations of sugars at which we see some inhibition of binding of FimH to the bladder cells, they do however not indicate complete inhibition. MIC values for the CD-conjugates 1-4 followed a similar trend as the inhibitory concentrations recorded in HIA.
The anti-adhesive capacities of the n-heptyl α-D-mannoside-derivatized cyclodextrins 1-4 were tested in vitro on the bladder cell line 5637, in a procedure analogous to as described in (Wellens, A. et al., PLoS ONE 3: e2040 (2008)). The ligands have been diluted 10-fold and this is also the resolution limit of these tests.

[2] = system: type-1 piliated clinical E. coli isolate UTI89; test: Haemagglutination inhibition assay (HIA), guinea pig erythrocytes; assay type: cell-based, Escherichia coli; settings: for MIC: read-out: Minimal inhibitory concentration (MIC) on haemagglutination
Experimental: Haemagglutination is observed as the red blood cells being held in suspension through the formation of a space-filling cross-linked network with the fimbriated bacteria.
The UIT89 clinical isolate was grown statically 37° C. for 48 hours in LB medium and analysed for haemagglutination of guinea pig red blood cells. Both bacteria and red blood cells (RBCs) were washed 3 times in ice-cold PBS (17 mM K/NaH2PO4, 150 mM NaCl). PBS was used for all dilutions. 96-well round-bottom microtiter plates were used for the dilutions. The titer for agglutination was determined in a 2-fold dilution series in PBS of the bacteria in a volume of 25 μL. Well 1 is a negative control without bacteria but 25 μL PBS. 25 μL PBS and 50 μL 5% RBCs were added to a final 100 μL volume. Upon 1 hour at 4° C., the titer was determined as the lowest concentration of bacteria that led to haemagglutination.
A bacterial concentration of twice the determined haemagglutination titer was kept constant in the haemagglutination inhibition assays. First, a 2-fold dilution series of the inhibitory compounds was performed in 25 μL PBS. Instead, in well 1 only 25 μL PBS was added as a negative control. 25 μL of the bacterial solution and 50 μl of 5% red blood cells were added to reach a final volume of 100 μL.

Chain of FimH (P08191 22-300): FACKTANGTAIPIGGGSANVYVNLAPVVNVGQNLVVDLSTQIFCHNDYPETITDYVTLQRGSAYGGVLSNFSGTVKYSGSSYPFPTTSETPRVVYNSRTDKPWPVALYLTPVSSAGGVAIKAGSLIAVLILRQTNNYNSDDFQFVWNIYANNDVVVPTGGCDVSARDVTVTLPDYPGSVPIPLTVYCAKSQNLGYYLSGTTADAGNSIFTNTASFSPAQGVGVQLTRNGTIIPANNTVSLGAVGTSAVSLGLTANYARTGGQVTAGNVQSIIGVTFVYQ

SMILES	Inhibition of oligomannoside binding (FIG. 17) (FimH; compounds 1, 2, 6 and HM compared)	Phagocytosis rate [1]	MIC, anti-adhesive potency on bladder cell line 5637 (bladder cell line 5637)	MIC ([2]; Escherichia coli, UTI89 1.2 10^9 CFU/ml)	MIC ([2]; Escherichia coli, UTI89 1.4 10^8 CFU/ml)	MIC ([2]; Escherichia coli, UTI89 7 10^7 CFU/ml)	Relative inhibitory potency (RIP), reference 1 ([2]; RIP (UTI89 1.2 10^9 CFU/ml))	Relative inhibitory potency (RIP), reference HM ([2]; RIP (UTI89 1.2 10^9 CFU/ml))	Relative inhibitory potency (RIP), reference 1 ([2]; RIP (UTI89 1.4 10^8 CFU/ml))	Relative inhibitory potency (RIP), reference HM ([2]; RIP (UTI89 1.4 10^8 CFU/ml))	Relative inhibitory potency (RIP), reference 1 ([2]; RIP (UTI89 7 10^7 CFU/ml))	Relative inhibitory potency (RIP), reference HM ([2]; RIP (UTI89 7 10^7 CFU/ml))	Inhibition of FimH binding compared to FimH alone (FimH; 5 nM)	Stability of activity in dissolved form (FimH; HM after 1 month storage in dissolved form vs immediately dissolved)	Relative inhibitory potency (RIP), reference 3 ([2]; RIP (UTI89 1.2 10^9 CFU/ml))	Relative inhibitory potency (RIP), reference 3 ([2]; RIP (UTI89 1.4 10^8 CFU/ml))	Relative inhibitory potency (RIP), reference 3 ([2]; RIP (UTI89 7 10^7 CFU/ml))	MIC ([2]; UTI89 1.2 10^9 CFU/ml)	MIC ([2]; UTI89 1.4 10^8 CFU/ml)	MIC ([2]; UTI89 7 10^7 CFU/ml)
OCC1OC(OCCCCCCCOCc2cn(CC3OC4OC5C(Cn6cc(COCCCCCCCOC7OC(CO)C(O)C(O)C7O)nn6)OC(OC6C(Cn7cc(COCCCCCCCOC8OC(CO)C(O)C(O)C8O)nn7)OC(OC7C(Cn8cc(COCCCCCCCOC9OC(CO)C(O)C(O)C9O)nn8)OC(OC8C(Cn9cc(COCCCCCCCOC%10OC(CO)C(O)C(O)C%10O)nn9)OC(OC9C(Cn%10cc(COCCCCCCCOC%11OC(CO)C(O)C(O)C%11O)nn%10)OC(OC%10C(Cn%11cc(COCCCCCCCOC%12OC(CO)C(O)C(O)C%12O)nn%11)OC(OC3C(O)C4O)C(O)C%10O)C(O)C9O)C(O)C8O)C(O)C7O)C(O)C6O)C(O)C5O)nn2)C(O)C(O)C1O (stereo not shown) [Compound 2]	most potent inhibition	no phagocytosis decrease	400 nM (≈ 1.45 µg/mL)	1.56 µM (≈ 5.67 µg/mL)	0.39 µM (≈ 1.42 µg/mL)	0.24 µM (≈ 0.873 µg/mL)	>128	8	256	3	263	4	–	–	–	–	–	–	–	–
CCCCCCCO[C@H]1O[C@H](CO)[C@@H](O)[C@H](O)[C@@H]1O [HM, Heptylmannoside, reference compound]	–	significantly decreased phagocytosis rate	4000 nM (≈ 1.11 µg/mL)	–	–	–	>16	–	67	–	64	–	significantly inhibited FimH binding	loosing activity in dissolved form	16	33	32	12.5 µM (≈ 3.48 µg/mL)	1.50 µM (≈ 0.418 µg/mL)	0.98 µM (≈ 0.273 µg/mL)
